# Assay results from patent US10316017B2, “COT modulators and methods of use thereof” (Gilead Sciences, Inc., priority 2015, dated 2019).
# Where two headings read alike, the source gives them in different places.
# How the values were obtained:
# [1] = target: T1, human Cot catalytic domain (30-397 amino acids) (Homo sapiens, UniProt P41279); experiment: High Throughput Cot Biochemical Assay (KinEASE TR-FRET); details: read-out: IC50 HTRF
# T1 construct: Purified recombinant human Cot catalytic domain (30-397 amino acids) was purchased from Cama Biosciences; purchased Cama Biosciences (so in the source)
# Method in brief: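 Recombinant human Cot catalytic domain (aa 30-397), 5 nM, with 1 μM STK3 peptide and 400 μM ATP in MOPS pH 7.0 buffer with MgOAc, DTT, BSA, NP-40, glycerol, 0.1% DMSO. Phosphorylated XL665-peptide detected by Eu-[…] antibody TR-FRET.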
# [2] = test system: TNFα production in LPS-stimulated human monocytes; experiment: Cot Monocyte TNFα Cell Based Assay; details: Homo sapiens, Monocyte, read-out: EC50 TNF
# Method in brief: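 Human monocytes (5,000 cells/well) pretreated with compound for 1 hour at 37° C (0.5% DMSO), then stimulated with 50 pg/ml LPS for 4 hours. Total TNFα measured by TR-FRET after overnight antibody incubation at room temp, expressed as percent of control between unstimulated and stimulated cells.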
# [3] = Cot biochemical HTRF (KinEASE TR-FRET) assay
# [4] = TNFα in LPS-stimulated human monocytes
# [5] = Cot KinEASE TR-FRET (HTRF) biochemical assay, 400 μM ATP
# [6] = Cot KinEASE TR-FRET, 400 μM ATP
# [7] = LPS-stimulated human monocytes, TNFα TR-FRET
# T1 sequence (P41279 30-397): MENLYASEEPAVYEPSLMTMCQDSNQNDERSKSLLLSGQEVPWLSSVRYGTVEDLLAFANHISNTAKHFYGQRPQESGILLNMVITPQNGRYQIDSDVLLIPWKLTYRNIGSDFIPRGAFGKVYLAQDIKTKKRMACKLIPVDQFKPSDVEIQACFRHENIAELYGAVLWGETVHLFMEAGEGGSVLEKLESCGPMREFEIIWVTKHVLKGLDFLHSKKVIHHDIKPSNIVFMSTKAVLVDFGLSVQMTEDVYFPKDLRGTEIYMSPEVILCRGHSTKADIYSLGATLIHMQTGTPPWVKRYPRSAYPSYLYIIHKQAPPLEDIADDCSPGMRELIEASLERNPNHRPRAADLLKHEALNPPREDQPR
Compound,"IC50 [1, 3] [nM]","EC50 [2, 4] [nM]","IC50 [1, 5] [nM]","IC50 [1, 6] [nM]","EC50 [2, 7] [nM]"
"N#Cc1cnc2c(F)cc(N[C@@H](c3ccc(Cl)cc3)c3cn(C4CCNCC4)nn3)cc2c1Nc1ccc(F)c(Cl)c1 [Example 814, (S)-4-((3-chloro-4-fluorophenyl)amino)-6-(((4-chlorophenyl)(1-(piperidin-4-yl)-1H-1,2,3-triazol-4-yl)methyl)amino)-8-fluoroquinoline-3-carbonitrile]",10,704,–,–,–
"CC(C)(C)CNc1c(C#N)cnc2c(C#N)cc(N[C@H](c3cn(C4CC4)nn3)c3ccccc3Cl)cc12 [Example 211, (S)-6-(((2-chlorophenyl)(1-cyclopropyl-1H-1,2,3-triazol-4-yl)methyl)amino)-4-(neopentylamino) quinoline-3,8-dicarbonitrile]",–,173,6,–,–
"Cc1c(-c2ccncc2)cccc1[C@H](Nc1cc(Cl)c2ncc(C#N)c(NCC(C)(C)C)c2c1)c1cn(C2(C(F)F)CC2)nn1 [Example 1085, (S)-8-chloro-6-(((1-(1-(difluoromethyl)cyclopropyl)-1H-1,2,3-triazol-4-yl)(2-methyl-3-(pyridin-4-yl)phenyl)methyl)amino)-4-(neopentylamino)quinoline-3-carbonitrile]",–,–,–,5,205
"[2H][C@](Nc1cc(Cl)c2ncc(C#N)c(NCC(C)(C)C)c2c1)(c1cn(C(C)(C)C)nn1)c1ccccc1Cl [Example 109, 6-(((1-(tert-butyl)-1H-1,2,3-triazol-4-yl) (2-chlorophenyl)methyl-d)amino)-8-chloro-4-(neopentylamino) quinoline-3-carbonitrile]",–,210,17,–,–
"N#Cc1cnc2c(Cl)cc(N[C@@H](c3ccc(Cl)cc3)c3cn(C4CCN(C5COC5)CC4)nn3)cc2c1Nc1ccc(F)c(Cl)c1 [Example 802, (S)-8-chloro-4-((3-chloro-4-fluorophenyl)amino)-6-(((4-chlorophenyl)(1-(1-(oxetan-3-yl)piperidin-4-yl)-1H-1,2,3-triazol-4-yl)methyl)amino)quinoline-3-carbonitrile]",78,963,–,–,–
"C[C@@H](Nc1c(C#N)cnc2c(Cl)cc(N[C@@H](c3ccccc3)c3cn(C4CCN(C(C)(C)C)CC4)nn3)cc12)C1CCCCC1 [Example 523, 6-(((S)-(1-(1-(tert-butyl)piperidin-4-yl)-1H-1,2,3-triazol-4-yl)(phenyl)methyl)amino)-8-chloro-4-(((R)-1-cyclohexylethyl)amino) quinoline-3-carbonitrile]",300,4880,–,–,–
"N#Cc1cnc2c(Cl)cc(N[C@H](c3cn(C4CC4)nn3)c3ccccc3Cl)cc2c1NCC12CC(C1)C2 [Example 928, (S)-4-((bicyclo[1.1.1]pentan-1-ylmethyl)amino)-8-chloro-6-(((2-chlorophenyl)(1-cyclopropyl-1H-1,2,3-triazol-4-yl)methyl)amino)quinoline-3-carbonitrile]",–,–,–,68,443

# Second part, the compound after the results:
"IC50 [1, 3] [nM]","EC50 [2, 4] [nM]","IC50 [1, 5] [nM]","IC50 [1, 6] [nM]","EC50 [2, 7] [nM]",Compound
3150,> 10000,–,–,–,"CC[C@@H](Nc1c(C#N)cnc2c(Cl)cc(N[C@H](c3cnn(C(F)F)n3)c3cccc(F)c3F)cc12)c1ccccc1 [Example 426, 8-chloro-6-(((S)-(2-(difluoromethyl)-2H-1,2,3-triazol-4-yl)(2,3-difluorophenyl)methyl)amino)-4-(((R)-1-phenylpropyl)amino) quinoline-3-carbonitrile]"
–,323,8,–,–,"[2H][C@](Nc1cc(Cl)c2ncc(C#N)c(Nc3cnc(F)c(F)c3)c2c1)(c1ccc(F)cc1)c1cn(C2CC2)nn1 [Example 382, (S)-8-chloro-6-(((1-cyclopropyl-1H-1,2,3-triazol-4-yl)(4-fluorophenyl)methyl-d)amino)-4-((5,6-difluoropyridin-3-yl)amino)quinoline-3-carbonitrile]"
–,7500,962,–,–,"[2H][C@](Nc1cc(Cl)c2ncc(C#N)c(NC3(C4CC4)CC3)c2c1)(c1ccc(F)cc1)c1cn(C2CC2)nn1 [Example 135, (S)-4-([1,1'-bi(cyclopropan)]-1-ylamino)-8-chloro-6-(((1-cyclopropyl-1H-1,2,3-triazol-4-yl)(4-fluorophenyl)methyl-d)amino)quinoline-3-carbonitrile]"
